Assay in all cases: biochemical
Assay [1] deals with HLA-DR DRB1*13:02 (Homo sapiens, UniProt P01903+P01911, A100E/A169T/K41T/L162R/M171V/P40S/Q125H/Q178H/Q39Y/Q99D/R42S/S66N/T262R/V115G/W38E/Y61H). Type of assay: binding.
In assay [2] the target is T1, HLA-DP DPA1*01:03/DPB1*03:01 (Homo sapiens, UniProt P04440+P20036, A65V/A84D/A85E/E86D/F38Y/G113D/G114E/G40L/I94L/L37V/M105V/M116V/P115A/R125K/T199I).
T1 sequence (P20036 29-260): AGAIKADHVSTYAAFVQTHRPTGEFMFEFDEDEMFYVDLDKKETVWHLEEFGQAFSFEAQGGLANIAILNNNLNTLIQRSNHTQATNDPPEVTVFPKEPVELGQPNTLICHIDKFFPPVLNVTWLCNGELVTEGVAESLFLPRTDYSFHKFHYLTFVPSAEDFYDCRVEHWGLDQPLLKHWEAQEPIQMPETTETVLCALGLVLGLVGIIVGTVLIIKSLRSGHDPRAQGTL
T1 sequence (P04440 30-258 L37V/F38Y/G40L/A65V/A84D/A85E/E86D/I94L/M105V/G113D/G114E/P115A/M116V/R125K/T199I): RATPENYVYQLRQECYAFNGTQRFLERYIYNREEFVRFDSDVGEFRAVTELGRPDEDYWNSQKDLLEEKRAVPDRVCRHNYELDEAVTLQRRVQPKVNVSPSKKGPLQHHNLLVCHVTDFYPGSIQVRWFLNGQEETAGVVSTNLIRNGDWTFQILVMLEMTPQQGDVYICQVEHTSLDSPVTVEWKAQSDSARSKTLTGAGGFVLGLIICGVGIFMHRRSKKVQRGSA
Type of assay: binding.

Assay [3] has as its target HLA-DR DRB1*08:02 (Homo sapiens, UniProt P01903+P01911, A100R/A103L/A169T/F76Y/H45Y/I96F/K41T/L162R/M171V/P40S/Q125H/Q178H/Q39Y/Q99D/R218S/R42G/S66Y/V115G/W38E). The assay is classed as binding.
The target of assay [4] is HLA-DR DRB4*01:01 (Homo sapiens, UniProt P01903+P13762, G164S). The assay is classed as binding.
Assay [5] concerns the target HLA-DR DRB3*02:02 (Homo sapiens, UniProt P01903+P79483, A212P/D57E/F66Y/L67A/R103Q/R218S/R40L/S89Y/T80R/V86D/Y55F/Y59H). Type of assay: binding.
The target of assay [6] is HLA-DR DRB1*01:01 (Homo sapiens, UniProt P01903+P01911, A100R/D57E/F55L/F60I/F76Y/I96L/L162R/M171V/P40L/Q125E/R42F/V115G/Y59C). Type of assay: binding.
Assay [7] deals with T2, HLA-DP DPA1*01:03/DPB1*02:01 (Homo sapiens, UniProt P04440+P20036, A65V/A84D/A85E/K98E).
T2 sequence (P20036 29-260): T1 sequence (P20036 29-260)
T2 sequence (P04440 30-258 A65V/A84D/A85E/K98E): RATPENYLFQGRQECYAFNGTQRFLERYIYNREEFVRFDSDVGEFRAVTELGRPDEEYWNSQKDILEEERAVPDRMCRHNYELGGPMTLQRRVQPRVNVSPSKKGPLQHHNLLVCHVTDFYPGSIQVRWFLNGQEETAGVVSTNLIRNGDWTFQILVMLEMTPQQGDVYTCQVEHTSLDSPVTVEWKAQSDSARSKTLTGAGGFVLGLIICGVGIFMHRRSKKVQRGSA
The assay is classed as binding. The conditions noted are these: read-out: Binding capacity/IC50 (nM) DPA1*01:03 DPB1*02:01.

The target in assay [8] is HLA-DP DPA1*03:01/DPB1*04:02 (Homo sapiens, UniProt P04440+P20036, A42M/A65V/A84D/A85E/L207M/L97S).
For assay [9], the target named is HLA-DR DRB1*15:01 (Homo sapiens, UniProt P01903+P01911). Type of assay: binding.
Assay [10] has as its target HLA-DR DRB1*12:01 (Homo sapiens, UniProt P01903+P01911, A100R/A169T/D57E/D86V/F55L/H45Y/K41T/L162R/M171V/P40S/Q125H/Q178H/Q39Y/Q99D/R42G/S66L/T262R/V114A/V67L/W38E/Y59H/Y61H/Y89S). The assay is classed as binding.
Assay [11] concerns the target HLA-DR DRB1*04:05 (Homo sapiens, UniProt P01903+P01911, A100R/A169T/D86S/F76Y/I96L/K127E/L162R/M171V/N62H/P40V/Q125Y/R42H/S133A/S149N/S66Y/V115G/V209L/W38E). Type of assay: binding.
The target of assay [12] is T3, HLA-DP DPA1*02:01/DPB1*14:01 (Homo sapiens, UniProt P04440+P20036, A65V/A84D/A85E/E86D/F191V/F38H/G113D/G114E/G40L/I94L/K142R/L158P/L37V/M105V/M116V/M62Q/P115A/Q81R/R125K/T114A/T199I/T259P).
T3 sequence (P20036 29-260 A42M/M62Q/Q81R/T114A/K142R/L158P/F191V/T259P): T1 sequence (P20036 29-260) with A14M, M34Q, Q53R, T86A, K114R, L130P, F163V, T231P
T3 sequence (P04440 30-258 L37V/F38H/G40L/A65V/A84D/A85E/E86D/I94L/M105V/G113D/G114E/P115A/M116V/R125K/T199I/R223Q): T1 sequence (P04440 30-258 L37V/F38Y/G40L/A65V/A84D/A85E/E86D/I94L/M105V/G113D/G114E/P115A/M116V/R125K/T199I) with Y9H, R194Q
Type of assay: binding.

[13] abbreviates: read-out: Binding capacity/IC50 (nM) DRB1*13:02.
[14] abbreviates: read-out: Binding capacity/IC50 (nM) DPA1*01:03 DPB1*03:01.
Where [15] appears, read: read-out: Binding capacity/IC50 (nM) DRB1*08:02.
Setting [16] is: read-out: Binding capacity/IC50 (nM) DRB4*01:01.
Setting [17] is: read-out: Binding capacity/IC50 (nM) DRB3*02:02.
The mark [18] stands for this setting: read-out: Binding capacity/IC50 (nM) DRB1*01:01.
The mark [19] stands for this setting: read-out: Binding capacity/IC50 (nM) DRB1*12:01.
[20] abbreviates: read-out: Binding capacity/IC50 (nM) DRB1*04:05.
The mark [21] stands for this setting: read-out: Binding capacity/IC50 (nM) DPA1*02:01 DPB1*14:01.
The mark [22] stands for this setting: read-out: Binding capacity/IC50 (nM) DRB1*15:01.

Positions count from the first letter of the chain named. Like-named read-outs stand apart in the source and are kept apart here.

HLA-DP DPA1*03:01/DPB1*04:02, sequence (P04440 whole entry A65V/A84D/A85E/L207M): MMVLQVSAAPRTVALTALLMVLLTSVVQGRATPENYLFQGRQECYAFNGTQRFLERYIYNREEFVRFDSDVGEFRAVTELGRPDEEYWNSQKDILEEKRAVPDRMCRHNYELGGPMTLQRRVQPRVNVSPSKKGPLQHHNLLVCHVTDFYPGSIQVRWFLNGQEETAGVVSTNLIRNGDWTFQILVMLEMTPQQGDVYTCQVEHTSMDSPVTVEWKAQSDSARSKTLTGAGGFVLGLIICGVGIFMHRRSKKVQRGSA
HLA-DP DPA1*03:01/DPB1*04:02, sequence (P20036 whole entry A42M/L97S): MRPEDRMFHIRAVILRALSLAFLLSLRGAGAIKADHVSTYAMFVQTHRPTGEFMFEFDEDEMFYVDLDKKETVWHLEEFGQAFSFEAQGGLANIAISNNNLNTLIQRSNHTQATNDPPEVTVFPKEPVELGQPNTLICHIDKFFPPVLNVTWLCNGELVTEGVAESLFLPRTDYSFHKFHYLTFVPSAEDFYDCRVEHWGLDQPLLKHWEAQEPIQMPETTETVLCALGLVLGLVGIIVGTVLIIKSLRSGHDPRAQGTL

As to `CC[C@H](C)[C@H](NC(=O)[C@H](CCCCN)NC(=O)[C@H](CCC(N)=O)NC(=O)[C@@H](NC(=O)[C@H](C)NC(=O)[C@H](CCC(=O)O)NC(=O)[C@@H](N)[C@@H](C)O)C(C)C)C(=O)N[C@@H](C)C(=O)N[C@H](C(=O)N[C@@H](CCC(=O)O)C(=O)N[C@@H](CO)C(=O)N[C@H](C(=O)N[C@H](C(=O)N[C@H](C(=O)N[C@@H](Cc1c[nH]c2ccccc12)C(=O)NCC(=O)N[C@@H](CCCCN)C(=O)N[C@H](C(=O)N1CCC[C@H]1C(=O)N[C@@H](CCCCN)C(=O)N[C@@H](Cc1ccccc1)C(=O)N[C@@H](CCCNC(=N)N)C(=O)N[C@@H](CC(C)C)C(N)=O)[C@@H](C)O)[C@@H](C)CC)C(C)C)[C@@H](C)CC)[C@@H](C)O` [RT(369-391)], the IC50 is 1290 nM in assay [1] (setting [13]); 5360 nM in assay [2] (setting [14]); 24 nM in assay [3] (setting [15]); 20 nM in assay [4] (setting [16]); 8840 nM in [5] (setting [17]); 65 nM in assay [6] (setting [18]). The IC50 in assay [7] turned out to be 2210 nM; in assay [8] it was 1740 nM; in assay [9] it was 447 nM; in assay [10] (setting [19]), 471 nM; in assay [11] (setting [20]), 2630 nM; in assay [12] (setting [21]), 78 nM.
As to `CC(C)C[C@H](NC(=O)[C@H](CCCCN)NC(=O)[C@@H](NC(=O)[C@H](CC(C)C)NC(=O)[C@@H]1CCCN1C(=O)[C@@H]1CCCN1C(=O)[C@@H](NC(=O)[C@H](CC(N)=O)NC(=O)[C@@H](NC(=O)[C@H](Cc1ccccc1)NC(=O)[C@H](CCC(=O)O)NC(=O)[C@H](Cc1c[nH]c2ccccc12)NC(=O)[C@@H](N)CCC(=O)O)C(C)C)[C@@H](C)O)C(C)C)C(=O)N[C@@H](Cc1c[nH]c2ccccc12)C(=O)N[C@@H](Cc1ccc(O)cc1)C(N)=O` [RT(413-427)], the IC50 in [1] was 2220 nM; in assay [2] (setting [14]) it was 5710 nM; in assay [3], 58 nM; in [4] (setting [16]), 1420 nM; in assay [5] (setting [17]), 4.4 nM; in assay [6], 26 nM. In addition, the IC50 in assay [7] turned out to be 639 nM; in [8], 7 nM; in [9] (setting [22]), 329 nM; in assay [10] it was 260 nM; in [11], 78 nM; in [12] (setting [21]), 1200 nM.
On to `CC[C@H](C)[C@H](NC(=O)[C@@H]1CCCN1C(=O)[C@H](CCC(=O)O)NC(=O)[C@@H](N)CCCCN)C(=O)N[C@H](C(=O)NCC(=O)N[C@@H](C)C(=O)N[C@@H](CCC(=O)O)C(=O)N[C@H](C(=O)N[C@@H](Cc1ccccc1)C(=O)N[C@@H](Cc1ccc(O)cc1)C(=O)N[C@H](C(=O)N[C@@H](CC(=O)O)C(=O)NCC(=O)N[C@@H](C)C(N)=O)C(C)C)[C@@H](C)O)C(C)C` [RT(431-445)], for which the IC50 came to 266 nM in assay [1] (setting [13]); 28400 nM in assay [2]; 19 nM in assay [3] (setting [15]); 243 nM in assay [4] (setting [16]); 611 nM in assay [5]; 5.1 nM in [6] (setting [18]). Further, the IC50 came out at 30 nM in assay [7]; 132 nM in assay [8]; 230 nM in assay [9] (setting [22]); 293 nM in assay [10] (setting [19]); 50 nM in assay [11] (setting [20]); 1350 nM in assay [12].
In the case of `CC[C@H](C)[C@H](NC(=O)[C@H](Cc1ccc(O)cc1)NC(=O)CNC(=O)[C@H](CO)NC(=O)[C@H](C)NC(=O)[C@@H](NC(=O)[C@H](Cc1c[nH]cn1)NC(=O)[C@@H](NC(=O)[C@H](C)NC(=O)[C@@H](NC(=O)[C@H](CC(C)C)NC(=O)[C@@H](NC(=O)[C@@H](NC(=O)[C@H](CCCCN)NC(=O)CNC(=O)[C@@H](N)CCC(=O)O)[C@@H](C)CC)[C@@H](C)CC)C(C)C)C(C)C)C(C)C)C(=O)N[C@@H](CCC(=O)O)C(N)=O` [integrase(69-85)], the IC50 in [1] (setting [13]) is 17000 nM; in assay [2] (setting [14]), 1990 nM; in assay [3] (setting [15]), 11 nM; in assay [4] it was 56 nM; in assay [5] (setting [17]), 7190 nM; in assay [6] (setting [18]), 0.56 nM. The IC50 in [7] is 4.5 nM; in assay [8], 212 nM; in assay [9] (setting [22]) it was 146 nM; in assay [10] (setting [19]) it was 2940 nM; in assay [11] (setting [20]) it was 430 nM; in [12] (setting [21]) it was 1370 nM.
As to `CC[C@H](C)[C@H](NC(=O)[C@@H](NC(=O)[C@H](CCCCN)NC(=O)[C@@H](NC(=O)[C@@H]1CCCN1C(=O)[C@H](Cc1c[nH]c2ccccc12)NC(=O)[C@H](CCCNC(=N)N)NC(=O)CNC(=O)[C@H](C)NC(=O)[C@H](CC(C)C)NC(=O)[C@H](CCCCN)NC(=O)[C@H](CC(C)C)NC(=O)[C@@H](NC(=O)[C@H](Cc1ccccc1)NC(=O)[C@H](Cc1ccc(O)cc1)NC(=O)[C@H](C)NC(=O)[C@@H](NC(=O)[C@@H](N)CCC(=O)O)[C@@H](C)O)[C@@H](C)CC)C(C)C)C(C)C)C(N)=O` [integrase(96-113)], the IC50 was 4410 nM in assay [1] (setting [13]); 1020 nM in assay [2] (setting [14]); 365 nM in assay [3] (setting [15]); 3080 nM in assay [4] (setting [16]); 7470 nM in assay [5] (setting [17]); 4.3 nM in assay [6] (setting [18]). Further, the IC50 in assay [7] worked out at 697 nM; in [8] it was 141 nM; in assay [9] (setting [22]), 284 nM; in assay [10] (setting [19]), 1510 nM; in [11] (setting [20]), 629 nM; in [12] (setting [21]), 12800 nM.

Source of the values: PMC3445454, “Broad and Cross-Clade CD4^+ T-Cell Responses Elicited by a DNA Vaccine Encoding Highly Conserved and Promiscuous HIV-1 M-Group Consensus Peptides” (PLoS ONE, 2012).
